Patent publication US5597823A, “Tricyclic substituted hexahydrobenz [e]isoindole alpha-1 adrenergic antagonists” (priority 1995, dated 1997)
Where a name gives a salt, the structure may show the parent alone.

Target: T1, α-1A adrenoceptor (dog prostate) (Canis lupus, UniProt A0A8I3NK63)
T1 sequence (A0A8I3NK63 1-466): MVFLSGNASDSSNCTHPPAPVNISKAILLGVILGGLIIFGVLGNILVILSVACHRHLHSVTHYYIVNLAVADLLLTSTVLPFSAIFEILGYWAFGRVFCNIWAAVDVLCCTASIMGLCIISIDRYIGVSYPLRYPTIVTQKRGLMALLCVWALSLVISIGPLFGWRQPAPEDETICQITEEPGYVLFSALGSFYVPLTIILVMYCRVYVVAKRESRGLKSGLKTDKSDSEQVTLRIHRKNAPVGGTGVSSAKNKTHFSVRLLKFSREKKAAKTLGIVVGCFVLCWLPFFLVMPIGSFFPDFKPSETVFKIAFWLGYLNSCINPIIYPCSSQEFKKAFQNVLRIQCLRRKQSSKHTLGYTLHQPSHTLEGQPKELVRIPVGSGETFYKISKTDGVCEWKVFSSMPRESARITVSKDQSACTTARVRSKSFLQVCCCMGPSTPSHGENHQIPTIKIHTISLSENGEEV
Experiment: Functional antagonism: phenylephrine (PE)-induced contraction of canine prostate strips
Type: cell-based
Settings: Table 2b; vs phenylephrine; Schild plot
Text: Functional assays indicative of pharmacologically defined α-1 adrenoceptors were used to further characterize compounds. Inhibition of phenylephrine (PE)-induced contraction of canine prostate smooth muscle can be correlated with α-1A adrenoceptor activation. […] For each of these models, agonist dose response curves were repeated against increasing concentrations of test agent to derive a Schild plot [log ([…]) against log (molarity of test agent)] to determine the pA2.
Canine prostate strips were used in vitro as previously described (Hieble, J. P., Boyce, A. J. and Caine, M., Fed. Proc., 45:2609-2614 (1986)), to determine antagonist potencies against phenylephrine-induced contractions.

Row | SMILES | pA2 Dog Prostate [α-1A]
1 | COc1cccc2c1CC[C@H]1CN(CCn3c(=O)[nH]c4c(sc5ccc(C(N)=O)cc54)c3=O)C[C@@H]21 [Example 46, 3-[2-((3aR,9bR)-cis-6-Methoxy-2,3,3a.4,5,9b-hexahydro-[1H]-benz[e]isoindol-1-yl)ethyl]-[1]-8-carboxamido-benzothieno[3,2-d]pyrimidine-2,4(1H,3H)-dionehydrochloride] | 9.61
2 | COc1cccc2c1CC[C@H]1CN(CCn3c(=O)[nH]c4c(sc5cc([N+](=O)[O-])ccc54)c3=O)C[C@@H]21 [Example 47, 3-[2-((3aR,9bR)-cis-6-Methoxy-2,3,3a.4,5,9b-hexahydro-[1H]-benz[e]isoindol-1-yl)ethyl]-[1]-7-nitro-benzothieno[3,2-d]pyrimidine-2,4(1H,3H)-dione hydrochloride] | 8.7
3 | COc1cccc2c1CC[C@H]1CN(CCn3c(=O)[nH]c4c(sc5ccc([N+](=O)[O-])cc54)c3=O)C[C@@H]21 [Example 48, 3-[2-((3aR,9bR)-cis-6-Methoxy-2,3,3a,4,5,9b-hexahydro-[1H]-benz[e]isoindol-1-yl)ethyl]-[1]-8-nitro-benzothieno[3,2-d]pyrimidine-2,4(1H,3H)-dione hydrochloride] | 8.32
4 | COc1cccc2c1CC[C@H]1CN(CCn3c(=O)[nH]c4c(sc5ccc(NC(C)=O)cc54)c3=O)C[C@@H]21 [Example 49, 3-[2-((3aR,9bR)-cis-6-Methoxy-2,3,3a,4,5,9b-hexahydro-[1H]-benz[e]isoindol-1-yl)ethyl]-[1]-8-acetamido-benzothieno[3,2-d]pyrimidine-2,4(1H,3H)-dione hydrochloride] | 7.84
5 | COc1cccc2c1CC[C@H]1CN(CCn3c(=O)[nH]c4c(sc5ccc(N(C)C)cc54)c3=O)C[C@@H]21 [Example 50, 3-[2-((3aR,9bR)-cis-6-Methoxy-2,3,3a,4,5,9b-hexahydro-[1H]-benz[e]isoindol-1-yl)ethyl]-[1]-8-N,N-dimethylamino-benzothieno[3,2-d]pyrimidine-2,4(1H,3H)-dione hydrochloride] | 7.24
6 | COc1cccc2c1CC[C@H]1CN(CCn3c(=O)[nH]c4cc5[nH]cnc5cc4c3=O)C[C@@H]21 [Example 53, 7-[2-((3aR,9bR)cis-6-Methoxy-2,3,3a,4,5,9b-hexahydro,[1H]-benz[e]isoindol-1-yl)ethyl]-imidazo[4,5-g]quinazoline-6,8(1H,5H)-dione hydrochloride] | 9.25
7 | COc1cccc2c1CC[C@H]1CN(CCn3c(=O)[nH]c4c(sc5cccc(C#N)c54)c3=O)C[C@@H]21 [Example 54, 3-2-((3aR,9bR)-cis-6-Methoxy-2,3,3a,4,5,9b-hexahydro-[1H]-benz[e]isoindol-1-yl)ethyl]-[1]-9-cyano-benzothieno[3,2-d]pyrimidine-2,4(1H,3H)-dione hydrochloride] | 8.74
8 | COc1cccc2c1CC[C@H]1CN(CCn3c(=O)[nH]c4c(sc5c(C#N)cccc54)c3=O)C[C@@H]21 [Example 55, 3-[2-((3aR,9bR)-cis-6-Methoxy-2,3,3a,4,5,9b-hexahydro-[1H]-benz[e]isoindol-1-yl)ethyl]-[1]-6-cyano-benzothieno[3,2-d]pyrimidine-2,4(1H,3H)-dione hydrochloride] | 8.11
9 | COc1cccc2c1CC[C@H]1CN(CCn3c(=O)[nH]c4c(sc5c(Cl)cccc54)c3=O)C[C@@H]21 [Example 56, 3-[2-((3aR,9bR)-cis-6-Methoxy-2,3,3a,4,5,9b-hexahydro-[1H]-benz[e]isoindol-1-yl)ethyl]-[1]-6-chloro-benzothieno[3,2-d]pyrimidine-2,4(1H,3H)-dione hydrochloride] | 7.11
10 | COc1cccc2c1CC[C@H]1CN(CCn3c(=O)[nH]c4c(sc5cc(Cl)ccc54)c3=O)C[C@@H]21 [Example 57, 3-[2-((3aR,9bR)-cis-6-Methoxy-2,3,3a,4,5,9b-hexahydro-[1H]-benz[e]isoindol-1-yl)ethyl]-[1]-7-chloro-benzothieno[3,2-d]pyrimidine-2,4(1H,3H)-dione hydrochloride] | 7.43
11 | COc1cccc2c1CC[C@H]1CN(CCn3c(=O)c4sc5cccnc5c4n(C)c3=O)C[C@@H]21 [Example 61, dihydrochloride] | 9.5
12 | COc1cccc2c1CC[C@H]1CN(CCn3c(=O)[nH]c4c(sc5c(Cl)ccnc54)c3=O)C[C@@H]21 [Example 63, 3-[2-((3aR,9bR)-cis-6-Methoxy-2,3,3a,4,5,9b-hexahydro-[1H]-benz[e]isoindol-1-yl)ethyl]-6-chloro-pyrido[2',3':4,5]thieno[3,2-d]pyrimidine-2,4(1H,3H)-dione dihydrochloride] | 8.6
13 | COc1cccc2c1CC[C@H]1CN(CCn3c(=O)[nH]c4c(sc5c(OC)ccnc54)c3=O)C[C@@H]21 [Example 65, dihydrochloride] | 8.75
14 | COc1cccc2c1CC[C@H]1CN(CCn3cnc4c([nH]c5ccccc54)c3=O)C[C@@H]21 [Example 66, 3-2-((3aR,9bR)-cis-6-Methoxy-2,3,3a,4,5,9b-hexahydro-[1H]-benz[e]isoindol-1-yl)ethyl]-1H-pyrimido[5,4-b]indole-4(1H,3H)-one hydrochloride] | 9.71

The remaining lines, values ahead:

Row | pA2 Dog Prostate [α-1A] | SMILES
15 | 8.98 | COc1cccc2c1CC[C@H]1CN(CCn3c(=O)[nH]c4c(sc5ccc(Cl)cc54)c3=O)C[C@@H]21 [Example 67, hydrochloride]
16 | 7.87 | COc1cc2sc3c(=O)n(CCN4C[C@@H]5CCc6c(OC)cccc6[C@@H]5C4)c(=O)[nH]c3c2cc1OC [Example 68, 3-[2-((3aR,9bR)-cis-6-Methoxy-2,3,3a,4,5,9b-hexahydro-[1H]-benz[e]isoindol-1-yl)ethyl]-[1]-7,8-dimethoxy-benzothieno[3,2-d]pyrimidine-2,4(1H,3H)-dionehydrochloride]
17 | 8.57 | COc1cccc2c1CC[C@H]1CN(CCN3CNc4c(sc5ncccc45)C3=O)C[C@@H]21 [Example 70, dihydrochloride]
18 | 9.21 | COc1cccc2c1CC[C@H]1CN(CCn3cnc4c(sc5nccnc54)c3=O)C[C@@H]21 [Example 71, 3-[2-(cis-(3.aR,9bR)-6-Methoxy-2,3 .,3a,4,5,9b-hexahydro-[1H]-benz[e]isoindol-1-yl)ethyl]-pyrazino[2',3':4,5]thieno[3,2-d]pyrimidine-4(1H,3H)-one hydrochloride]
19 | 8.38 | COc1cccc2c1CC[C@H]1CN(CCn3c(=O)[nH]c4c(sc5cccc(Cl)c54)c3=O)C[C@@H]21 [Example 72, 3-[2-((3aR,9bR)-cis-6-Methoxy-2,3,3a,4,5,9b-hexahydro-[1H]-benz[e]isoindol-1-yl)ethyl]-[1]-9-chloro-benzothieno[3,2-d]pyrimidine-2,4(1H,3H)-dione hydrochloride]
20 | 8.42 | COc1cccc2c1CC[C@H]1CN(CCn3c(=O)[nH]c4c(sc5cccc(OC)c54)c3=O)C[C@@H]21 [Example 73, 3-[2-((3aR,9bR)-cis-6-Methoxy-2,3,3a,4,5,9b-hexahydro-[1H]-benz[e]isoindol-1-yl)ethyl]-[1]-9-methoxy-benzothieno[3,2-d]pyrimidine-2,4(1H,3H)-dione hydrochloride]
21 | 8.7 | COc1cccc2c1CC[C@H]1CN(CCn3c(=O)[nH]c4c(sc5ccc(C)cc54)c3=O)C[C@@H]21 [Example 74, 3-[2,((3aR,9bR)-cis-6-Methoxy-2,3,3a,4,5,9b-hexahydro-[1H]-benz[e]isoindol-1-yl)ethyl]-[1]-8-methyl-benzothieno[3,2-d]pyrimidine-2,4(1H,3H)-dione hydrochloride]
22 | 9.09 | COc1cccc2c1CC[C@H]1CN(CCn3c(=O)[nH]c4c(oc5cccnc54)c3=O)C[C@@H]21 [Example 77, 3-[2-((3aR,9bR)-cis-6-Methoxy-2,3,3a,4,5,9b-hexahydro-[1H]-benz[e]yl)ethyl]-pyrido[2',3':4,5]furo[3,2-d]pyrimidine-2,4(1H3 H)-dione hydrochloride]
23 | 7.8 | COc1cccc2c1CC[C@@H]1CN(CCn3c(=O)[nH]c4c(sc5cccnc54)c3=O)C[C@H]21 [Example 78, dihydrochloride]
24 | 8.77 | COc1cccc2c1[C@@H]1CN(CCCCn3c(=O)[nH]c4c(sc5cccnc54)c3=O)C[C@@H]1CC2 [Example 79, dihydrochloride]
25 | 8.08 | COc1cccc2c1[C@@H]1CN(CCCCn3c(=O)[nH]c4c(sc5nccnc54)c3=O)C[C@@H]1CC2 [Example 80, hydrochloride]
26 | 9.09 | COc1cccc2c1CC[C@H]1CN(CCn3c(=O)[nH]c4c(ccc5ncccc54)c3=O)C[C@@H]21 [Example 82, 3-[2-((3aR,9bR)cis-6-Methoxy-2,3,3a,4,5,9b-hexahydro-[1H]-benz[e]isoindol-1-yl)ethyl]-pyrido[2,3-h]quinazoline-2,4(1H,3H)-dione hydrochloride]
27 | 8.43 | COc1cccc2c1CC[C@H]1CN(CCn3c(=O)[nH]c4c(ccc5cccnc54)c3=O)C[C@@H]21 [Example 83, hydrochloride]
28 | 8.99 | COc1cccc2c1CC[C@H]1CN(CCn3c(=O)[nH]c4c(ccc5cnccc54)c3=O)C[C@@H]21 [Example 84, hydrochloride]
